Literature values in patent US9304123B2, “Biomarkers used to detect and monitor neurological autoimmune diseases” (NUtech Ventures, priority 2012, dated 2016).

Tested on: EAE
Settings: animal models

In the case of CN(C)C(=N)N=C(N)N [Metformin], the “effect on EAE progression” value is given as “attenuate EAE progression”.
